Experimental data reported in ChEMBL document CHEMBL3259525, “Plasmepsin inhibitory activity and structure-guided optimization of a potent hydroxyethylamine-based antimalarial hit” (ACS Med Chem Lett, 2014).

Key:
Plasmepsin II = Plasmepsin II (Plasmodium falciparum, UniProt P46925); test: Inhibition of Plasmodium falciparum plasmepsin-2 using DABCYL-Glu-Arg-Nle-Phe-Leu-Ser-Phe-Pro-EDANS as substrate preincubated for 30 mins by FRET assay
[1] = Inhibition of Plasmodium falciparum plasmepsin-4 using DABCYL-Glu-Arg-Nle-Phe-Leu-Ser-Phe-Pro-EDANS as substrate preincubated for 30 mins by FRET assay
Cathepsin D = Cathepsin D (Homo sapiens, UniProt P07339); test: Inhibition of human cathepsin-D using DABCYL-Glu-Arg-Nle-Phe-Leu-Ser-Phe-Pro-EDANS as substrate preincubated for 30 mins by FRET assay
Cathepsin D, sequence (P07339 65-162 limits assumed): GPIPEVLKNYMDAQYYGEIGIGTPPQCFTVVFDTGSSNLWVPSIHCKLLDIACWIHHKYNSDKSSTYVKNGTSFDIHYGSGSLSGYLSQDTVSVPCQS
Cathepsin D, sequence (P07339 169-412 limits assumed): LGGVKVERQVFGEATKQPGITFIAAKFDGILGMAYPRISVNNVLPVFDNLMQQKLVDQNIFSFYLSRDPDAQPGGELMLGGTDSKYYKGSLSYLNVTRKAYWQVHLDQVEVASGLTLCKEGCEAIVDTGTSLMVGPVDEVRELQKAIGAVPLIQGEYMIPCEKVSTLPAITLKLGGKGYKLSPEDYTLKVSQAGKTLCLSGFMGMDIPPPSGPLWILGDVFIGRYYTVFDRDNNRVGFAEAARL

Plasmepsin I = Plasmepsin I (Plasmodium falciparum, UniProt P39898); test: Inhibition of Plasmodium falciparum plasmepsin-1 using DABCYL-Glu-Arg-Nle-Phe-Leu-Ser-Phe-Pro-EDANS as substrate preincubated for 30 mins by FRET assay
Plasmepsin I, sequence (P39898 whole entry): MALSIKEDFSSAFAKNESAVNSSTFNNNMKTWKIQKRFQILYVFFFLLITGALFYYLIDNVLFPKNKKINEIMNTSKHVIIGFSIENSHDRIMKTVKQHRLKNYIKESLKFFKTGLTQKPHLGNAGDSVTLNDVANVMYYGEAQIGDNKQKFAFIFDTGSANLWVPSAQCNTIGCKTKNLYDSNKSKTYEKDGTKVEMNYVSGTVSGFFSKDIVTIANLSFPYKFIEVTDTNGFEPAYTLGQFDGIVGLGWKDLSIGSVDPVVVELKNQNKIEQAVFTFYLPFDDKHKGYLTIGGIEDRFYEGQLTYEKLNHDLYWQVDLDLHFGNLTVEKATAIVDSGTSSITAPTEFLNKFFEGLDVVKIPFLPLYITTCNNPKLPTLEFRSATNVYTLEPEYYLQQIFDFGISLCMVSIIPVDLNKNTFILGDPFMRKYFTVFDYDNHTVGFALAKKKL

Plasmodium falciparum [2] = test: Antimalarial activity against blood-stage Plasmodium falciparum 3D7 assessed as inhibition of parasite growth after 96 hrs by SYBR Green I assay; format: functional, organism-based; settings: 3D7, 96 h
Plasmodium falciparum [3] = test: Antimalarial activity against intra erythrocytic Plasmodium falciparum assessed as inhibition of parasite growth; format: functional, organism-based

Plasmepsin II, sequence (P46925 whole entry): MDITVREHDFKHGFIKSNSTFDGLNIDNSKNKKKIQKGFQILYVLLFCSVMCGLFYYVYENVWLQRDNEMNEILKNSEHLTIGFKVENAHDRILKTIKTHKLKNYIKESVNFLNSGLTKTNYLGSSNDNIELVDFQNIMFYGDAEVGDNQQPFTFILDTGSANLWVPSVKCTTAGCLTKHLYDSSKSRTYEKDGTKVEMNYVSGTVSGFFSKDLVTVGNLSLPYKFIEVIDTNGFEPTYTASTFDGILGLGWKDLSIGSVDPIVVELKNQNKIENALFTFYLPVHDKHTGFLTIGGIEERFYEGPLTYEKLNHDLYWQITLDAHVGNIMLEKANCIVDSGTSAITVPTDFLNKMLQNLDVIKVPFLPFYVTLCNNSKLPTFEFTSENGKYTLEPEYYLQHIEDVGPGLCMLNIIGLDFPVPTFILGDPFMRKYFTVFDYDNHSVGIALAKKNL

IC50 (Plasmepsin II) [nM]	IC50 [1] [nM]	IC50 (Cathepsin D) [nM]	IC50 (Plasmepsin I) [nM]	SMILES	IC50 (Plasmodium falciparum [2]) [nM]	IC50 (Plasmodium falciparum [3]) [nM]
320	48	120	2300	CCCN(CCC)C(=O)c1cc(C(=O)N[C@@H](Cc2ccccc2)[C@H](O)CNC(C)(C)c2ccccc2)cc(N2CCCCS2(=O)=O)c1		
70	24	42	300	CCCN(CCC)C(=O)c1cc(C(=O)N[C@@H](Cc2ccccc2)[C@H](O)CNC(C)(C)c2cccc(OC)c2)cc(N2CCCCC2)c1	6	
600	180	200	6100	CCCN(CCC)C(=O)c1cc(C(=O)N[C@@H](Cc2ccccc2)[C@H](O)CNCc2cccc(OC)c2)cc(N2CCCCC2)c1		
4400	170	500	7600	COc1cccc(C(C)(C)NC[C@@H](O)[C@H](Cc2ccccc2)NC(=O)c2cc(C(N)=O)cc(N3CCCCC3)c2)c1		
36	25	19	200	CCCN(CCC)C(=O)c1cc(C(=O)N[C@@H](Cc2ccccc2)[C@H](O)CNC(C)(C)c2cccc(OC)c2)cc(C2CCCCC2)c1		
150	29	43	700	CCCN(CCC)C(=O)c1cc(C(=O)N[C@@H](Cc2ccccc2)[C@H](O)CNC(C)(C)c2cccc(OC)c2)cc(N2CCCCS2(=O)=O)c1	2	30

The next lines start with the molecule.

SMILES	IC50 (Plasmepsin II) [nM]	IC50 [1] [nM]	IC50 (Cathepsin D) [nM]	IC50 (Plasmepsin I) [nM]	IC50 (Plasmodium falciparum [2]) [nM]	IC50 (Plasmodium falciparum [3]) [nM]
CCCNC(=O)c1cc(C(=O)N[C@@H](Cc2ccccc2)[C@H](O)CNC(C)(C)c2cccc(OC)c2)cc(N2CCCCC2)c1	500	38	110	750		
CCCN(CCC)C(=O)c1cc(C(=O)N[C@@H](Cc2ccccc2)[C@@H](O)CNC(C)(C)c2cccc(OC)c2)cc(N2CCCCS2(=O)=O)c1	14000	470	4400	18000	200	
CCCN(CCC)C(=O)c1cc(C(=O)N[C@@H](Cc2ccccc2)[C@@H](O)CNC(C)(C)c2ccccc2)cc(N2CCCCS2(=O)=O)c1	24000	720	5800	45000		
CCCN(CCC)C(=O)c1cc(C(=O)N[C@@H](Cc2ccccc2)[C@H](O)CNC(C)(C)c2cccc(O)c2)cc(N2CCCCC2)c1	100	19	40	360		
CCCN(CCC)C(=O)c1cc(C(=O)N[C@@H](Cc2ccccc2)[C@H](O)CNC(C)(C)c2ccccc2)cc(N2CCCCC2)c1	110	23	51	380		
CCCN(CCC)C(=O)c1cc(C(=O)N[C@@H](Cc2ccccc2)[C@H](O)CNC(C)(C)c2ccccn2)cc(N2CCCCC2)c1	800	250	350	4100		
CCCN(CCC)C(=O)c1cc(C(=O)N[C@@H](Cc2ccccc2)[C@H](O)CNC(C)(C)c2cccnc2)cc(N2CCCCC2)c1	190	64	140	350		
CCCN(CCC)C(=O)c1cc(C(=O)N[C@@H](Cc2ccccc2)[C@H](O)CNC(C)(C)c2ccncc2)cc(N2CCCCC2)c1	270	90	170	470		
CCCN(CCC)C(=O)c1cc(C(=O)N[C@@H](Cc2ccccc2)[C@H](O)CNC(C)(C)c2cncc(OC)c2)cc(N2CCCCC2)c1	190	23	68	600		
CCCN(CCC)C(=O)c1cc(C(=O)N[C@@H](Cc2ccccc2)[C@H](O)CNC2(c3cccc(OC)c3)CC2)cc(N2CCCCC2)c1	150	25	100	330		
COc1cccc(C(C)(C)NC[C@@H](O)[C@H](Cc2ccccc2)NC(=O)c2cc(C(=O)N3CCCC3)cc(N3CCCCC3)c2)c1	500	110	38	1600		
CCCN(CCC)C(=O)c1cc(C(=O)N[C@@H](Cc2ccccc2)[C@H](O)CNC(C)(C)c2cccc(OC)c2)cc(N2CCCC2)c1	120	7	32	430	4	
CCCN(CCC)C(=O)c1cc(C(=O)N[C@@H](Cc2ccccc2)[C@H](O)CNC(C)(C)c2cccc(OC)c2)cc(-c2ccccc2)c1	72	6	54	250	2	
CCCN(CCC)C(=O)c1cc(C(=O)N[C@@H](Cc2ccccc2)[C@H](O)CNCc2cccc(OC)c2)cc(N2CCCCS2(=O)=O)c1	2700	200	360	18000		
